Tests used:
[1] = target: KRAS G12V Ba/F3 (Homo sapiens, UniProt P01116, G12V, cells depend on it); assay: Ba/F3 proliferation assay, KRAS G12V; format: cell-based; settings: 72 h, AlamarBlue, read-out: KRAS G12V Ba/F3 IC50
Experimental: Plasmids containing KRASG12 mutants(i.e. G12D, G12C, G12V) are obtained from GeneScript. To generate KRASG12-dependent Ba/F3 models, Ba/F3 cells are transduced with retroviruses containing vectors that harbor KRASG12 isoforms. Platinum-E cells (Cell Biolabs) are used for retrovirus packaging. Retrovirus is added to Ba/F3 cells. To ensure infection, 4 μg/mL polybrene is added and cells are spinfected. […] Cells with an infection efficiency of 10% to 20% are further cultivated and puromycin selection with 1 μg/mL is initiated. As a control, parental Ba/F3 cells are used to show selection status. Selection is considered successful when parental Ba/F3 cells cultures died. To evaluate the transforming potential of KRASG12 mutations, the growth medium is no longer supplemented with IL-3. Ba/F3 cells harboring the empty vector are used as a control. Approximately ten days before conducting the experiments, puromycin is left out.
Compounds are added using an Access Labcyte Workstation with a Labcyte Echo 550 or 555 accoustic dispenser. All treatments are performed in technical duplicates. […] AlamarBlue™ (ThermoFisher), a viability stain, is added and fluorescence measured in the PerkinElmer Envision HTS Multilabel Reader. The raw data are imported into and analyzed with the Boehringer Ingelheim proprietary software MegaLab (curve fitting based on the program PRISM, GraphPad Inc.).

[2] = system: NCI-H358 cells; assay: NCI-H358 CTG proliferation assay (120 h) (NSCLC, G12C); format: cell-based; settings: Homo sapiens
Experimental: Additional Proliferation Assays with Mutant Cancer Cell Lines • NCI-H358 CTG proliferation assay (120 h) (NSCLC, G12C)
NCI-H358 cells (ATCC No. CRL-5807) are dispensed into black 384-well plates, flat and clear bottom (Greiner, PNr. 781091) at a density of 200 cells per well in 60 μl RPMI-1640 ATCC-Formulation (Gibco #A10491)+10% FCS (fetal calf serum). […] For the TO time point measurement, untreated cells are analyzed at the time of compound addition. Plates are incubated for 120 h, and cell viability is measured using CellTiter-Glo luminescent cell viability reagent (Promega product code G7570). Viability (stated as percent of control) is defined as relative luminescence units RLU of each well divided by the RLU of cells in DMSO controls.

[3] = system: AsPC-1 cells; assay: AsPC-1 CTG proliferation assay (120 h) (pancreatic cancer, G12D); format: cell-based; settings: Homo sapiens, ASPC1
Experimental: The CTG assay is designed to measure quantitatively the proliferation of AsPC-1 cells (ATCC CRL-5985), using the CellTiter Glow Assay Kit (Promega G7571). Cells are grown in RPMI medium (ATCC) supplemented with Fetal Calf Serum (Life Technologies, Gibco BRL, Cat. No. 10270-106). On “day 0” 2000 AsPC-1 cells are seeded in 60 μL RPMI ATCC+10% FCS+ Penstrep in a 384-well plate, flat and clear bottom (Greiner, PNr. 781091). Cells are then incubated in the plates at 37° C. in a CO2 incubator overnight. On day 1, compounds (10 mM stock in DMSO) are added with the ECHO acoustic liquid handler system (Beckman Coulter), including DMSO controls. Plates are incubated for 120 h, and cell viability is measured using CellTiter-Glo luminescent cell viability reagent (Promega product code G7570). Viability (stated as percent of control) is defined as relative luminescence units RLU of each well divided by the RLU of cells in DMSO controls.

[4] = Metabolic (microsomal) stability assay, human liver microsomes (HLM); format: in vitro ADME; settings: 1 μM, predicted clearance as percent of liver blood flow
Experimental: The metabolic degradation of the test compound is assayed at 37° C. with pooled liver microsomes (mouse (MLM), rat (RLM) or human (HLM)). The final incubation volume of 48 μL per time point contains TRIS buffer (pH 7.5; 0.1 M), magnesium chloride (6.5 mM), microsomal protein (0.5 mg/mL for mouse/rat, 1 mg/mL for human specimens) and the test compound at a final concentration of 1 μM. Following a short preincubation period at 37° C., the reactions are initiated by addition of 12 μL beta-nicotinamide adenine dinucleotide phosphate, reduced form (NADPH, 10 mM) and terminated by transferring an aliquot into solvent after different time points (0, 5, 15, 30, 60 min). Additionally, the NADPH-independent degradation is monitored in incubations without NADPH, terminated at the last time point by addition of acetonitrile. The quenched incubations are pelleted by centrifugation (4,000 rpm, 15 min). An aliquot of the supernatant is assayed by LC-MS/MS to quantify the concentration of parent compound in the individual samples.
In vitro intrinsic clearance (CLint, in vitro) is calculated from the time course of the disappearance of the test drug during the microsomal incubation. Each plot is fitted to the first-order elimination rate constant as C(t)=C0*exp(−ke*t), where C(t) and C0 are the concentration of unchanged test drug at incubation time t and that at preincubation and ke is the disappearance rate constant of the unchanged drug. Subsequently, CLint, in vitro (μL min^−1·amount protein) values are converted to predicted CLint, in vitro (mL min^−1·kg^−1) from incubation parameters according to the equation CLint, in vitro=CLint, in vitro×(incubation volume (ml)/amount protein (mg))×(amount protein (mg)/g liver tissue)×(liver weight/body wt.). For better across species comparison the predicted clearance is expressed as percent of the liver blood flow [% QH](mL min^−1·kg^−1) in the individual species. In general, high stability (corresponding to low % QH) of the compounds across species is desired.

KRAS G12V Ba/F3, sequence (P01116 whole entry G12V, canonical isoform): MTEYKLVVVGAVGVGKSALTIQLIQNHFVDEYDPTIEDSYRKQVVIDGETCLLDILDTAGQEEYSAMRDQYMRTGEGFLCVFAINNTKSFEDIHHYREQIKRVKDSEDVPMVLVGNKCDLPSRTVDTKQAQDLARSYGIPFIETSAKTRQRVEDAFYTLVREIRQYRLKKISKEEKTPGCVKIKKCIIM

| GI50 [1] | IC50 [2] | IC50 [3] | HLM QH [%] [4] | SMILES |
| --- | --- | --- | --- | --- |
| 297 nM | 85 nM | 36 nM | 37% | CO[C@@H]1C[C@@H]([C@H](C)Oc2cc(O[C@@H]3CNC3(C)C)nc(-c3noc4c3CCC[C@@]43CCCc4sc(N)c(C#N)c43)n2)N(C)C1 [II-30] |
| 230 nM | 119 nM | 25 nM | 37% | C[C@H](Oc1cc(O[C@@H]2CNC2(C)C)nc(-c2noc3c2CCC[C@@]32CCCc3sc(N)c(C#N)c32)n1)[C@@H]1C[C@@H](F)CN1C [II-31] |

Second part, the compound before the results:

| SMILES | GI50 [1] | IC50 [2] | IC50 [3] | HLM QH [%] [4] |
| --- | --- | --- | --- | --- |
| C[C@H](Oc1cc(Nc2ncccn2)nc(-c2noc3c2CCC[C@@]32CCCc3sc(N)c(C#N)c32)n1)[C@@H]1CCCN1C [II-17] | 10 nM | 775 nM | 2720 nM | <24% |
| C[C@H](Oc1cc(Nc2cccnn2)nc(-c2noc3c2CCC[C@@]32CCCc3sc(N)c(C#N)c32)n1)[C@@H]1CCCN1C [II-18] | 11 nM | 430 nM | 3010 nM | 41% |
| C[C@H](Oc1cc(O[C@H]2CN(C)C(C)(C)C2)nc(-c2noc3c2CCC[C@@]32CCCc3sc(N)c(C#N)c32)n1)[C@@H]1CCCN1C [II-19] | 151 nM | 3270 nM | 1420 nM | <24% |
| C[C@H]1CN(C)CCCN1c1cc(O[C@@H]2CNC2(C)C)nc(-c2noc3c2CCC[C@@]32CCCc3sc(N)c(C#N)c32)n1 [II-28] | 2040 nM | 952 nM | 443 nM | 26% |
| C[C@H](Oc1cc(O[C@@H]2CNC[C@@H]2F)nc(-c2noc3c2CCC[C@@]32CCCc3sc(N)c(C#N)c32)n1)[C@@H]1CCCN1C [II-29] | 65 nM | 36 nM | 430 nM | 28% |
